Converted amounts (≈) assume the structure as drawn. Read-outs that look alike come from different tables or passages of the source.
What was measured:
A. baumannii NCTC 13423 = experiment: Antibacterial activity, pre-exposure; type: cell-based, Acinetobacter baumannii; conditions: for Average inhibition %, biofilms viability / Average inhibition %, planktonic cells viability / inhibition at 10 µM / inhibition at 15 µM / inhibition at 25 µM / inhibition at 50 µM: A. baumannii NCTC 13423, pre-exposure, ± SD; for inhibition at 10 µM / inhibition at 15 µM / inhibition at 25 µM / inhibition at 50 µM / MIC: Acinetobacter baumannii, NCTC13423
Procedure, shortened: (§1)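 Pre-exposure format: compound and bacterial culture co-incubated 18 h, 37 °C, aerobic, 220 rpm. Planktonic: turbidity (OD) plus resazurin viability, 20 μM final. Biofilm: PBS wash, 20 μM resazurin, then ethanol fixation and crystal violet staining, A595.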

S. aureus ATCC 25923 [1] = experiment: Antibacterial activity, post-exposure on preformed 18-h-old biofilms; type: cell-based, Staphylococcus aureus; conditions: for Average inhibition %, biofilms viability / Average inhibition %, planktonic cells viability / inhibition at 25 µM / inhibition at 50 µM / inhibition at 100 µM / inhibition at 200 µM: ± SD; for inhibition at 25 µM / inhibition at 50 µM / inhibition at 100 µM / inhibition at 200 µM: Staphylococcus aureus; for inhibition at 25 µM: ATCC25923, 25 µM; for inhibition at 50 µM: ATCC25923, 50 µM; for inhibition at 100 µM: ATCC25923, 100 µM; for inhibition at 200 µM: ATCC25923, 200 µM
Procedure, shortened: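 Compounds were applied to preformed 18-h biofilms after medium change and left 24 h. Read-outs: planktonic OD plus resazurin fluorescence (20 μM), biofilm metabolic activity by resazurin 30 min at 37 °C, then biomass by crystal violet absorbance at 595 nm after ethanol fixation.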

S. aureus ATCC 25923 [2] = experiment: Antibacterial activity, pre-exposure (planktonic cells and biofilm formation); type: cell-based, Staphylococcus aureus; conditions: for MIC / inhibition at 5 µM / inhibition at 10 µM / inhibition at 15 µM / inhibition at 25 µM: Staphylococcus aureus, ATCC25923; for inhibition at 5 µM / inhibition at 10 µM / inhibition at 15 µM / inhibition at 25 µM / Average inhibition %, biofilms viability / Average inhibition %, planktonic cells viability: pre-exposure, ± SD
Procedure, shortened: as §1

P. aeruginosa ATCC 9027 = experiment: Antibacterial activity, pre-exposure; type: cell-based, Pseudomonas aeruginosa; conditions: for Average inhibition %, biofilms viability / Average inhibition %, planktonic cells viability / inhibition at 50 µM / inhibition at 100 µM / inhibition at 150 µM / inhibition at 200 µM: P. aeruginosa ATCC 9027, pre-exposure, ± SD; for inhibition at 50 µM / inhibition at 100 µM / inhibition at 150 µM / inhibition at 200 µM: ATCC9027
Procedure, shortened: as §1

[3] = 10 µM, read-out: Average inhibition %, biofilms biomass
[4] = 10 µM, read-out: Average inhibition %, planktonic cells turbidity
[5] = 15 µM, read-out: Average inhibition %, biofilms biomass
[6] = 15 µM, read-out: Average inhibition %, planktonic cells turbidity
[7] = 25 µM, read-out: Average inhibition %, biofilms biomass
[8] = 25 µM, read-out: Average inhibition %, planktonic cells turbidity
[9] = read-out: Average inhibition %, biofilms biomass
[10] = read-out: Average inhibition %, planktonic cells turbidity

CCCCCCCCc1ccc(C(O)CC(N)(CO)CO)cc1 (stereo not drawn) [Compound 54, 3-Amino-3-(hydroxymethyl)-1-(4-octylphenyl)butane-1,4-diol]
Average inhibition %, biofilms viability (A. baumannii NCTC 13423; 10 µM): 0 ± 0%
Average inhibition %, planktonic cells viability (A. baumannii NCTC 13423; 10 µM): 4.7 ± 2.4%
Average inhibition %, biofilms viability (A. baumannii NCTC 13423; 15 µM): 1.2 ± 2.1%
Average inhibition %, planktonic cells viability (A. baumannii NCTC 13423; 15 µM): 6.4 ± 4.2%
Average inhibition %, biofilms viability (A. baumannii NCTC 13423; 25 µM): 6.1 ± 6.8%
Average inhibition %, planktonic cells viability (A. baumannii NCTC 13423; 25 µM): 3.3 ± 4.4%
Average inhibition %, biofilms viability (A. baumannii NCTC 13423; 50 µM): 100.2 ± 0.8%
Average inhibition %, planktonic cells viability (A. baumannii NCTC 13423; 50 µM): 99.4 ± 0.2%
inhibition at 10 µM (A. baumannii NCTC 13423; [3]): 2.3 ± 4.1%
inhibition at 10 µM (A. baumannii NCTC 13423; [4]): 0%
inhibition at 15 µM (A. baumannii NCTC 13423; [5]): 1.5 ± 1.3%
inhibition at 15 µM (A. baumannii NCTC 13423; [6]): 0%
inhibition at 25 µM (A. baumannii NCTC 13423; [7]): 6.1 ± 8.1%
inhibition at 25 µM (A. baumannii NCTC 13423; [8]): 0%
inhibition at 50 µM (A. baumannii NCTC 13423; 50 µM, read-out: Average inhibition %, biofilms biomass): 81.2 ± 8.8%
inhibition at 50 µM (A. baumannii NCTC 13423; 50 µM, read-out: Average inhibition %, planktonic cells turbidity): 99 ± 1%
MIC (A. baumannii NCTC 13423; pre-exposure, Inactive = no activity up to 50 μM, > = some inhibition but no MIC reached, read-out: MIC A. baumannii NCTC 13423): 50 µM (≈ 16.2 µg/mL)
MIC (A. baumannii NCTC 13423; supplementary molecular formula strings sheet, read-out: MIC (A. baumannii)): 50 µM (≈ 16.2 µg/mL)
Average inhibition %, biofilms viability (S. aureus ATCC 25923 [1]; 25 µM): 11.2 ± 0.8%
Average inhibition %, planktonic cells viability (S. aureus ATCC 25923 [1]; 25 µM): 15 ± 26.1%
Average inhibition %, biofilms viability (S. aureus ATCC 25923 [1]; 50 µM): 23.6 ± 12.7%
Average inhibition %, planktonic cells viability (S. aureus ATCC 25923 [1]; 50 µM): 0 ± 0%
Inhibition of viability and total biomass of preformed biofilms (S. aureus ATCC 25923 [1]; 100 μM): at least 70%
Average inhibition %, biofilms viability (S. aureus ATCC 25923 [1]; 100 µM): 82.1 ± 27.3%
Average inhibition %, planktonic cells viability (S. aureus ATCC 25923 [1]; 100 µM): 97.9 ± 3.4%
Average inhibition %, biofilms viability (S. aureus ATCC 25923 [1]; 200 µM): 99.8 ± 0.2%
Average inhibition %, planktonic cells viability (S. aureus ATCC 25923 [1]; 200 µM): 100.1 ± 0.2%
inhibition at 25 µM (S. aureus ATCC 25923 [1]; [9]): 44 ± 14.9%
inhibition at 25 µM (S. aureus ATCC 25923 [1]; [10]): 5.1 ± 6.4%
inhibition at 50 µM (S. aureus ATCC 25923 [1]; [9]): 55.3 ± 3%
inhibition at 50 µM (S. aureus ATCC 25923 [1]; [10]): 17.4 ± 3.4%
inhibition at 100 µM (S. aureus ATCC 25923 [1]; [9]): 83.5 ± 19%
inhibition at 100 µM (S. aureus ATCC 25923 [1]; [10]): 82.6 ± 4.7%
inhibition at 200 µM (S. aureus ATCC 25923 [1]; [9]): 86.4 ± 3.9%
inhibition at 200 µM (S. aureus ATCC 25923 [1]; [10]): 83.6 ± 3.7%
MIC (S. aureus ATCC 25923 [2]; lowest concentration with no visible growth (>90% inhibition of turbidity and viability of planktonic cells), 18 h, read-out: MIC S. aureus ATCC 25923): 25 µM (≈ 8.09 µg/mL)
inhibition at 5 µM (S. aureus ATCC 25923 [2]; 5 µM, read-out: Average inhibition %, biofilms biomass): 21.2 ± 18.4%
inhibition at 5 µM (S. aureus ATCC 25923 [2]; 5 µM, read-out: Average inhibition %, planktonic cells turbidity): 34.1 ± 32.1%
inhibition at 10 µM (S. aureus ATCC 25923 [2]; [3]): 23.7 ± 8.7%
inhibition at 10 µM (S. aureus ATCC 25923 [2]; [4]): 38.3 ± 27%
inhibition at 15 µM (S. aureus ATCC 25923 [2]; [5]): 39.3 ± 23.6%
inhibition at 15 µM (S. aureus ATCC 25923 [2]; [6]): 44.1 ± 23.3%
inhibition at 25 µM (S. aureus ATCC 25923 [2]; [7]): 93.7 ± 4.1%
inhibition at 25 µM (S. aureus ATCC 25923 [2]; [8]): 98.8 ± 1%
MIC (S. aureus ATCC 25923 [2]; read-out: MIC (S. aureus)): 25 µM (≈ 8.09 µg/mL)
Average inhibition %, biofilms viability (S. aureus ATCC 25923 [2]; 5 µM): 21.2 ± 4.7%
Average inhibition %, planktonic cells viability (S. aureus ATCC 25923 [2]; 5 µM): 11.9 ± 20.6%
Average inhibition %, biofilms viability (S. aureus ATCC 25923 [2]; 10 µM): 28.3 ± 15.2%
Average inhibition %, planktonic cells viability (S. aureus ATCC 25923 [2]; 10 µM): 10.2 ± 17.7%
Average inhibition %, biofilms viability (S. aureus ATCC 25923 [2]; 15 µM): 28.6 ± 10.1%
Average inhibition %, planktonic cells viability (S. aureus ATCC 25923 [2]; 15 µM): 8.5 ± 14.7%
Average inhibition %, biofilms viability (S. aureus ATCC 25923 [2]; 25 µM): 99.5 ± 0.6%
Average inhibition %, planktonic cells viability (S. aureus ATCC 25923 [2]; 25 µM): 99.8 ± 0.1%
Average inhibition %, biofilms viability (P. aeruginosa ATCC 9027; 50 µM): 22.2 ± 26.9%
Average inhibition %, planktonic cells viability (P. aeruginosa ATCC 9027; 50 µM): 74 ± 11.2%
Average inhibition %, biofilms viability (P. aeruginosa ATCC 9027; 100 µM): 98.9 ± 1.5%
Average inhibition %, planktonic cells viability (P. aeruginosa ATCC 9027; 100 µM): 99.6 ± 0%
Average inhibition %, biofilms viability (P. aeruginosa ATCC 9027; 150 µM): 97.5 ± 3.9%
Average inhibition %, planktonic cells viability (P. aeruginosa ATCC 9027; 150 µM): 99.2 ± 0.8%
Average inhibition %, biofilms viability (P. aeruginosa ATCC 9027; 200 µM): 99.7 ± 0.1%
Average inhibition %, planktonic cells viability (P. aeruginosa ATCC 9027; 200 µM): 99.7 ± 0.1%
MIC (P. aeruginosa ATCC 9027; Pseudomonas aeruginosa, ATCC9027, pre-exposure, Inactive = no activity up to 200 μM, > = some inhibition but no MIC reached, read-out: MIC P. aeruginosa ATCC 9027): 50 to 100 µM (≈ 16.2 to 32.3 µg/mL)
MIC (P. aeruginosa ATCC 9027; Pseudomonas aeruginosa, ATCC9027, supplementary molecular formula strings sheet, read-out: MIC (P. aeruginosa)): 100 µM (≈ 32.3 µg/mL)
inhibition at 50 µM (P. aeruginosa ATCC 9027; Pseudomonas aeruginosa, 50 µM, read-out: Average inhibition %, biofilms biomass): 46.4 ± 22%
inhibition at 50 µM (P. aeruginosa ATCC 9027; Pseudomonas aeruginosa, 50 µM, read-out: Average inhibition %, planktonic cells turbidity): 76.9 ± 11.6%
inhibition at 100 µM (P. aeruginosa ATCC 9027; Pseudomonas aeruginosa, 100 µM, read-out: Average inhibition %, biofilms biomass): 96.7 ± 1.1%
inhibition at 100 µM (P. aeruginosa ATCC 9027; Pseudomonas aeruginosa, 100 µM, read-out: Average inhibition %, planktonic cells turbidity): 98.2 ± 0.5%
inhibition at 150 µM (P. aeruginosa ATCC 9027; Pseudomonas aeruginosa, 150 µM, read-out: Average inhibition %, biofilms biomass): 90.9 ± 7.2%
inhibition at 150 µM (P. aeruginosa ATCC 9027; Pseudomonas aeruginosa, 150 µM, read-out: Average inhibition %, planktonic cells turbidity): 94.4 ± 1.4%
inhibition at 200 µM (P. aeruginosa ATCC 9027; Pseudomonas aeruginosa, 200 µM, read-out: Average inhibition %, biofilms biomass): 94.1 ± 1.7%
inhibition at 200 µM (P. aeruginosa ATCC 9027; Pseudomonas aeruginosa, 200 µM, read-out: Average inhibition %, planktonic cells turbidity): 94.1 ± 1.3%
MIC (P. aeruginosa ATCC 9027; pre-exposure, Inactive = no activity up to 200 μM, > = some inhibition but no MIC reached, read-out: MIC P. aeruginosa ATCC 9027): 100 µM (≈ 32.3 µg/mL)

— article PMC8296573, “Synthesis and Biological Evaluation of Fingolimod Derivatives as Antibacterial Agents” (ACS Omega, 2021)
